In publication doi:10.1101/151233v4 (biorxiv, 2018):

Molecular target: T1, truncated chicken MR (GAL4-DBD-MR-LBD) (Gallus gallus, UniProt C1KB84)
T1 sequence (C1KB84 729-986): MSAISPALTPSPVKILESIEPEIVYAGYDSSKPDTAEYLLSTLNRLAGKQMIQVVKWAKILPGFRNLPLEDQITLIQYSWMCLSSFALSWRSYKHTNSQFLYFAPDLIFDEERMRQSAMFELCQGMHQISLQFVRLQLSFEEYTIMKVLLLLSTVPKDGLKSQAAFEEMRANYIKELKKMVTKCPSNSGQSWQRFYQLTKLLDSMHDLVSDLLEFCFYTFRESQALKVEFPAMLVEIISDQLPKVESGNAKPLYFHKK
Experiment: luciferase reporter transactivation in HEK293, GAL4-DBD fusion
Format: cell-based

SMILES: C[C@]12CCC(=O)C=C1CC[C@@H]1[C@@H]2[C@@H](O)C[C@]2(C=O)[C@@H](C(=O)CO)CC[C@@H]12 [aldosterone]
- EC50: 130 pM

SMILES: C[C@]12CCC(=O)C=C1CC[C@@H]1[C@@H]2[C@@H](O)C[C@@]2(C)[C@H]1CC[C@]2(O)C(=O)CO [cortisol]
- EC50: 690 pM
